The target of data set [1] is SARS-CoV-2 Main Protease (SARS-CoV-2) (UniProt P0DTD1).
The conditions of data set [2]: in vivo, iv, 0.5 mg/kg.

Several values for one entry are separate records, joined by “and”; a condition that tells them apart may be missing. Equal entries are not always repeated.

A word on the IC50: it is the concentration that inhibits the measured activity by half. The term AUC(0-inf) denotes total exposure, with the tail of the curve extrapolated. The AUC(0-t) is the area under the concentration-time curve up to a stated or last time point. Higher therefore signals high exposure. Broadly, the MRT inf is a mean duration of stay, worked out from the concentration-time curve. As usually defined, the MRT last is a mean duration of stay, worked out from the concentration-time curve. One may read the Vd as the apparent volume that relates the amount in the body to the concentration in plasma or blood. The term clearance denotes the volume of plasma or blood freed of the substance per unit of time. High values mean a high capacity for elimination, low ones a low capacity for elimination. One may read the half-life as how long it takes for the measured level to halve. Regarding `CS(=O)(=O)N1Cc2ccc(Cl)cc2C(C(=O)Nc2cncc3c2CCCC3)C1` (stereo unspecified), the IC50 in data set [1] was 642 nM. Moreover, in data set [2] (rat), the AUC(0-inf) is 196 ng·h/mL and 264 ng·h/mL; the AUC(0-t) is 195 ng·h/mL and 262 ng·h/mL; the C0 was 541 ng/mL and 625 ng/mL; the MRT inf is 35.6 min and 31 min. Besides, in data set [2] (rat), the MRT last was 29.8 min and 34 min; the Vd was 1.32 L/kg and 1.14 L/kg; the clearance is 42.5 mL/min/kg and 33 mL/min/kg; the half-life is 30.6 min and 25.6 min.

Turning to `CNC(=O)N1Cc2ccc(Cl)cc2C(C(=O)Nc2cncc3ccccc23)C1` (stereo unspecified), the IC50 in data set [1] is 272 nM. In data set [2] (mouse), the AUC(0-inf) is 97.6 ng·h/mL and 117 ng·h/mL; the AUC(0-t) is 94.9 ng·h/mL and 115 ng·h/mL; the C0 was 328 ng/mL and 570 ng/mL; the MRT inf is 16.4 min and 13.4 min. Moreover, in data set [2] (mouse), the MRT last is 14.7 min and 12.5 min; the Vd is 1.32 L/kg and 0.896 L/kg; the clearance was 80.4 mL/min/kg and 68.2 mL/min/kg; the half-life is 11.5 min and 9.96 min.

In data set [1], `O=C(Cc1cccc(Cl)c1)Nc1cncc2cn[nH]c12` had an IC50 of 2100 nM. Also, in data set [2] (rat), the AUC(0-inf) is 216 ng·h/mL and 364 ng·h/mL; the AUC(0-t) was 216 ng·h/mL and 356 ng·h/mL; the C0 is 986 ng/mL and 1030 ng/mL; the mean residence time MRT inf is 25.6 min and 15.7 min. Also, in data set [2] (rat), the mean residence time MRT last was 15.4 min and 23.3 min; the Vd was 0.604 L/kg and 0.594 L/kg; the clearance is 38.6 mL/min/kg and 25.6 mL/min/kg; the half-life was 14.4 min and 19.9 min.

For the compound `O=C(Cc1cccc(Cl)c1)Nc1cncc2cc[nH]c12`, in data set [1], the 50% inhibitory concentration (IC50) came out at 1900 nM. Besides, in data set [2] (rat), the AUC(0-inf) is 129 ng·h/mL and 176 ng·h/mL and 114 ng·h/mL; the exposure AUC(0-t) is 128 ng·h/mL and 172 ng·h/mL and 113 ng·h/mL; the C0 was 320 ng/mL and 470 ng/mL and 344 ng/mL; the mean residence time (MRT inf) is 29.9 min and 38.2 min and 23 min. Further, in data set [2] (rat), the MRT last is 35.3 min and 27 min and 21.6 min; the Vd was 2.47 L/kg and 1.46 L/kg and 2.1 L/kg; the clearance was 64.5 mL/min/kg and 48.4 mL/min/kg and 91.1 mL/min/kg; the half-life was 42.8 min and 22.7 min and 19.5 min.

With `O=C1CC(C(=O)Nc2cncc3ccccc23)c2cc(Cl)c(Cl)cc2N1` (stereo unspecified), the IC50 in data set [1] is 196 nM and 356 nM. Further, in data set [2] (mouse), the AUC(0-inf) was 199 ng·h/mL and 230 ng·h/mL; the AUC(0-t) was 197 ng·h/mL and 226 ng·h/mL; the C0 was 268 ng/mL and 390 ng/mL; the MRT inf is 44.9 min and 49.9 min. Besides, in data set [2] (mouse), the MRT last was 42.4 min and 45.4 min; the Vd is 1.88 L/kg and 1.81 L/kg; the clearance was 41.9 mL/min/kg and 36.2 mL/min/kg; the half-life is 34.4 min and 43.6 min.

For the compound `O=C(Cc1cccc(Cl)c1)Nc1cnc2ccccn12`, the IC50 in data set [1] was found to be 8030 nM. Moreover, in data set [2] (rat), the AUC(0-inf) is 285 ng·h/mL and 249 ng·h/mL; the AUC(0-t) is 284 ng·h/mL and 247 ng·h/mL; the C0 is 663 ng/mL and 588 ng/mL; the MRT inf is 26.8 min and 26.9 min. Besides, in data set [2] (rat), the MRT last was 26.4 min and 25.6 min; the Vd is 0.788 L/kg and 0.895 L/kg; the clearance is 29.2 mL/min/kg and 33.5 mL/min/kg; the half-life is 25.6 min and 22.8 min.

With `Cc1cccc2cncc(NC(=O)Cc3cccc(Cl)c3)c12`, the IC50 in data set [1] amounted to 331 nM. Besides, in data set [2] (rat), the AUC(0-inf) was 206 ng·h/mL and 112 ng·h/mL; the AUC(0-t) is 203 ng·h/mL and 111 ng·h/mL; the C0 is 934 ng/mL and 490 ng/mL; the MRT inf was 21.8 min and 18.2 min. Moreover, in data set [2] (rat), the MRT last was 16.2 min and 19.9 min; the volume of distribution (Vd) was 0.737 L/kg and 1.83 L/kg; the clearance was 40.4 mL/min/kg and 84.8 mL/min/kg; the half-life was 24.9 min and 34.8 min.

As for `COc1ccc2cncc(NC(=O)[C@H]3CCNc4cc(Cl)c(Cl)cc43)c2c1` (stereo in doubt), the IC50 in data set [1] is < 50 nM and 82.3 nM and 53.6 nM. In data set [2] (mouse), the AUC(0-inf) was 113 ng·h/mL and 130 ng·h/mL; the AUC(0-t) is 113 ng·h/mL and 128 ng·h/mL; the C0 is 179 ng/mL and 202 ng/mL; the MRT inf was 28.6 min and 30.8 min. For the same compound, in data set [2] (mouse), the MRT last was 27.6 min and 28.9 min; the Vd was 2.09 L/kg and 1.97 L/kg; the clearance was 73.4 mL/min/kg and 64 mL/min/kg; the half-life was 16.1 min and 19.4 min.

For `Cc1cc2c(NC(=O)C3CCOc4ccc(Cl)cc43)cncc2s1` (stereo unspecified), in data set [1], the IC50 came to 228 nM. In data set [2] (rat), the AUC(0-inf) is 122 ng·h/mL and 130 ng·h/mL; the AUC(0-t) was 118 ng·h/mL and 128 ng·h/mL; the C0 was 342 ng/mL and 378 ng/mL; the MRT inf is 26.3 min and 28.9 min. In addition, in data set [2] (rat), the MRT last was 25.1 min and 24.1 min; the Vd was 1.76 L/kg and 1.52 L/kg; the clearance was 60.8 mL/min/kg and 58 mL/min/kg; the half-life is 22.4 min and 25 min.
